Columns and labels:
[1] = biological target: recombinant human FLAP protein (Homo sapiens (Human), UniProt P20292); experiment: FLAP binding assay (Scintillation Proximity Assay, displacement of [125I]L-691,831); settings: read-out: FLAP SPA IC50
Method: Assessment of Biological Properties 1. Binding Assay: Compounds are assessed for the ability to bind to FLAP in a binding assay that measures compound-specific displacement of an iodinated (^125I) FLAP inhibitor via a Scintillation Proximity Assay format (adapted from S. Charleson et al., Mol. Pharmacol., 1992, 41, 873-879). […] The cells are lysed with a Dounce homogenizer and the material is centrifuged at 10,000×g for 10 minutes. The supernatant is then collected and centrifuged at 100,000×g for 60 minutes. To prepare membrane protein for an assay, an aliquot of the 100,000×g pellet is resuspended in 1 ml of buffer A, Dounce homogenized, and finally subjected to polytron mixing (30 seconds). […] Mol. Pharmacol., 41, 873-879, 1992) and finally 50 μl of the bead/protein mixture. (final concentrations: beads, 200 μg/well; protein, 5 μg/well; […] The plates are shaken for 2 h before reading on a Microbeta plate reader.

[2] = system: synthesis of LTB4 in human whole blood; experiment: Human whole blood LTB4 production inhibition assay; format: cell-based; settings: calcimycin stimulated, read-out: hWB LTB4 IC50
Method: Compounds are additionally tested in a human whole blood assay to determine their ability to inhibit the synthesis of LTB4 in a cellular system. Compounds are combined with heparinized human whole blood and incubated for 15 minutes at 37° C. Calcimycin (20 μM final, prepared in phosphate-buffered saline, pH 7.4) is then added and the mixture is incubated for another 30 minutes at 37° C. The samples are centrifuged for 5 min at low speed (1500×g) and the plasma layer is removed. Plasma LTB4 concentrations are then measured using an antibody-based homogenous time-resolved fluorescence method (CisBio, Bedford, Mass.).

Sequence of recombinant human FLAP protein (P20292 whole entry): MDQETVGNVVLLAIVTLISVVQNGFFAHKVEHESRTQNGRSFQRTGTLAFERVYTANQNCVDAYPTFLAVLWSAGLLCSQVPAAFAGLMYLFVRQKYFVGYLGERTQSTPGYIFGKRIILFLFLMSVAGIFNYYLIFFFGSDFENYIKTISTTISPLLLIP

IC50 [1]	IC50 [2]	SMILES
7.7 nM	> 5000 nM	Nc1ncc(-c2ccc(C3(c4noc(-c5ccc(N6CCN[C@@H](C(=O)O)C6)nc5)n4)CCC3)cn2)cn1 [Example 42, (2R)-4-[5-(3-{1-[6-(2-aminopyrimidin-5-yl)pyridin-3-yl]cyclobutyl}-1,2,4-oxadiazol-5-yl)pyridin-2-yl]piperazine-2-carboxylic acid]
1.2 nM	170 nM	Nc1ncc(-c2ccc(C3(c4noc(-c5ccc(N6CC[C@@H](O)C6)nc5)n4)CCC3)cn2)cn1 [Example 43, (3R)-1-[5-(3-{1-[6-(2-aminopyrimidin-5-yl)pyridin-3-yl]cyclobutyl}-1,2,4-oxadiazol-5-yl)pyridin-2-yl]pyrrolidin-3-ol]
2.7 nM	100 nM	C[C@@H](O)CNc1ccc(-c2nc(C3(c4ccc(-c5cnc(N)nc5)nc4)CCC3)no2)cn1 [Example 44, (2R)-1-{[5-(3-{1-[6-(2-aminopyrimidin-5-yl)pyridin-3-yl]cyclobutyl}-1,2,4-oxadiazol-5-yl)pyridin-2-yl]amino}propan-2-ol]
3.1 nM	750 nM	Nc1ncc(-c2ccc(C3(c4noc(-c5ccc(N6CCC[C@@H]6CO)nc5)n4)CCC3)cn2)cn1 [Example 45, {(2R)-1-[5-(3-{1-[6-(2-aminopyrimidin-5-yl)pyridin-3-yl]cyclobutyl}-1,2,4-oxadiazol-5-yl)pyridin-2-yl]pyrrolidin-2-yl}methanol]
2.4 nM	110 nM	C[C@H](O)CNc1ccc(-c2nc(C3(c4ccc(-c5cnc(N)nc5)nc4)CCC3)no2)cn1 [Example 46, (2S)-1-{[5-(3-{1-[6-(2-aminopyrimidin-5-yl)pyridin-3-yl]cyclobutyl}-1,2,4-oxadiazol-5-yl)pyridin-2-yl]amino}propan-2-ol]
3.4 nM	170 nM	CCOC(=O)CCN1CCN(c2ccc(-c3nc(C4(c5ccc(-c6cnc(N)nc6)nc5)CCC4)no3)cn2)CC1 [Example 47, ethyl 3-{4-[5-(3-{1-[6-(2-aminopyrimidin-5-yl)pyridin-3-yl]cyclobutyl}-1,2,4-oxadiazol-5-yl)pyridin-2-yl]piperazin-1-yl}propanoate]
2.2 nM	140 nM	Nc1ncc(-c2ccc(C3(c4noc(-c5ccc(N6CC[C@H](O)C6)nc5)n4)CCC3)cn2)cn1 [Example 48, (3S)-1-[5-(3-{1-[6-(2-aminopyrimidin-5-yl)pyridin-3-yl]cyclobutyl}-1,2,4-oxadiazol-5-yl)pyridin-2-yl]pyrrolidin-3-ol]
3.7 nM	180 nM	Nc1ncc(-c2ccc(C3(c4noc(-c5ccc(N6CCS(=O)(=O)CC6)nc5)n4)CCC3)cn2)cn1 [Example 49, 5-[5-(1-{5-[6-(1,1-dioxidothiomorpholin-4-yl)pyridin-3-yl]-1,2,4-oxadiazol-3-yl}cyclobutyl)pyridin-2-yl]pyrimidin-2-amine]
2.7 nM	150 nM	CS(=O)(=O)N1CCN(c2ccc(-c3nc(C4(c5ccc(-c6cnc(N)nc6)nc5)CCC4)no3)cn2)CC1 [Example 50, 5-{5-[1-(5-{6-[4-(methylsulfonyl)piperazin-1-yl]pyridin-3-yl}-1,2,4-oxadiazol-3-yl)cyclobutyl]pyridin-2-yl}pyrimidin-2-amine]
4.8 nM	150 nM	CS(=O)(=O)CCNc1ccc(-c2nc(C3(c4ccc(-c5cnc(N)nc5)nc4)CCC3)no2)cn1 [Example 51, 5-(5-{1-[5-(6-{[2-(methylsulfonyl)ethyl]amino}pyridin-3-yl)-1,2,4-oxadiazol-3-yl]cyclobutyl}pyridin-2-yl)pyrimidin-2-amine]
2.6 nM	180 nM	CS(=O)(=O)C1CCN(c2ccc(-c3nc(C4(c5ccc(-c6cnc(N)nc6)nc5)CCC4)no3)cn2)C1 (stereo not shown) [Example 52, 5-{5-[1-(5-{6-[3-(methylsulfonyl)pyrrolidin-1-yl]pyridin-3-yl}-1,2,4-oxadiazol-3-yl)cyclobutyl]pyridin-2-yl}pyrimidin-2-amine]
